According to PMC9969396, “Development of Human Carbonic Anhydrase II Heterobifunctional Degraders” (Journal of Medicinal Chemistry, 2023):
Read-outs that look alike come from different tables or passages of the source.

What was measured:
hCAII [1] = biological target: T1, hCAII (Homo sapiens, UniProt P00918); assay: colorimetric p-nitrophenyl acetate hCAII activity assay; assay type: biochemical
T1 construct: made in house; host or cells: Escherichia coli BL21(DE3), pACA plasmid (gift from Carol A. Fierke)
Protocol: To verify that the p-sulfamoyl benzamide MBP retained its binding following ligation with the linker and bulky recruiting group moieties, the inhibition activity of each degrader candidate was determined using a colorimetric p-nitrophenol acetate hCAII activity assay.[46] In short, recombinantly expressed hCAII was preincubated with the degrader candidate before the addition of p-nitrophenyl acetate, a substrate that upon enzymatic cleavage leads to acetic acid and p-nitrophenolate.
Recombinant hCAII was expressed and purified according to the protocol reported in the Supporting Information. […] Wells were prepared to a final volume of 100 μL per well, including buffer (50 mM HEPES, pH 8.0), enzyme (hCAII, 40 nM), inhibitor (varying concentrations), and substrate (p-nitrophenyl acetate, 500 μM). Inhibitors and protein were preincubated for 10 min at rt, and the substrate was added to the reaction mixture immediately before reading. […] The rate of absorbance for each replicate was corrected for substrate autohydrolysis and inherent inhibitor absorbance by subtracting the rate of absorbance from a blank sample lacking enzyme but containing the inhibitor and substrate. Samples lacking inhibitor but containing enzyme and substrate were used to define 100% hCAII activity. Samples lacking inhibitor and enzyme were used to define 0% hCAII activity. IC50 was determined using non-linear regression with a variable slope on the GraphPad Prism software.

hCAII [2] = biological target: T2, hCAII (Homo sapiens, UniProt P00918+Q96SW2); assay: nine-point dose response hCAII degradation assay in HEK293 cells, western blot; assay type: cell-based
T2 construct: HEK293 cells, a line known to abundantly express hCAII; endogenous in cells; host or cells: HEK293
Protocol: Three biological replicates of HEK293 cells were dosed in parallel with 4 or 5 at concentrations ranging from 5 pM to 15 μM for 24 h prior to lysis. […] This phenomenon can be attributed to the binary complexes of degrader-POI and degrader-E3 ligase outcompeting the POI-degrader-E3 ligase ternary complex at high degrader concentrations. […] The half-maximal degradation (DC50 value reported as a 95% confidence interval) and maximum percentage of degradation (DMax) of each active degrader were determined using a least squares sigmoidal fitting of the degradation activity of dosing concentrations below the observable “hook effect” (Figure 2B).
Figure 3 Dose-dependent degradation of hCAII by 4 and 5. (A) Western blot images of HEK293 cells dosed for 24 h with degrader 4 (left) or 5 (right) at concentrations of 5 pM to 15 μM. (B) Dose response curves of hCAII abundance as a percent of DMSO vehicle for 4 (left) or 5 (right). Band intensities of blots from three biological replicates were quantified using ImageJ software (Experimental Section). Data were normalized to a vehicle-treated (DMSO) group and plotted as a sigmoidal curve. Nonlinear fitting of log([inhibitor]) vs response (three parameters) was generated for 4 with R^2 = 0.955 and 5 with R^2 = 0.855 in GraphPad Prism. Points marked with an asterisk indicate only two biological replicates. In all other cases, error bars represent the standard deviation of triplicate experiments. Full images of the western blots are provided in the Supporting Information (Figures S1 and S3).
Given the inactivity of 1–3 and increased potency of 4 over 5, a 12-atom linker appeared to be a preferred length for favorable ternary complex formation in the heterobifunctional degraders tested. To further examine the role of linker length and composition, we explored hydrocarbon linkers for their ability to improve degrader lipophilicity and membrane permeability without impacting the favorable ternary complex formation. […] Western blot analysis and quantification of three biological replicates identified the degradation of hCAII at concentrations of 11 as low as 50 pM and achieved near-complete hCAII degradation at concentrations of 5 nM (Figures 5A and S3).
After reaching 90% confluency, HEK293 cells were trypsinized, counted, and plated with 2 mL media at 2 × 10^6 cells per well on a tissue-culture-treated, 6-well plate. At the appropriate number of hours before reaching ∼90% confluency, cells were treated with DMSO solutions of the appropriate compounds (final concentration 0.5% DMSO per well). Upon reaching 90% confluency, typically 72 h, culture media were removed and the cells were washed with cold Dulbecco’s phosphate-buffered saline (DPBS). Lysis buffer, composed of cell lysis buffer (Cell Signaling Technology, 9803), protease inhibitor cocktail (Cell Signaling Technology, 5872), and 1 mM phenylmethylsulfonylfluoride, was added to each well, and the plates were rocked at 4 °C for 20 min. Cells were then scraped from the bottom of the plates, and the supernatant was collected after spinning down at 14,000g at 4 °C for 10 min and frozen at −80 °C. Lysates were thawed on ice, and the total protein concentration was measured using a Pierce bicinchoninic acid protein assay (Thermo Fisher Scientific, 23225). […] Following heating at 98 °C for 5 min and cooling to room temperature, the prepared samples were electrophoretically separated on a 4–20% TGX gel (Bio-Rad, 4568095) and transferred to a PVDF membrane (Amersham Hybond P 0.45 μm, 106000019) in a tris-glycine transfer buffer (Thermo Fisher Scientific, LC3675) with a 20% final MeOH concentration. The membrane was rocked at 4 °C with fluorescent blocking buffer (Thermo Fisher Scientific, 37565) for 1 h and then incubated with primary antibodies (hCAII Rabbit mAb, 1:1000 and β-actin Rabbit pAb, 1:2000 in fluorescent blocking buffer) at 4 °C overnight. […]

hCAII [3] = biological target: T2, hCAII; assay: time-course of hCAII abundance in HEK293 cells, western blot; assay type: cell-based; settings: 50 nM
Protocol: To determine the efficiency of 11, hCAII abundance was evaluated in HEK293 cells that were dosed with 50 nM of 11 over 48 h. Depletion of hCAII relative to vehicle (DMSO) began within 2 h and reached a maximal effect by 6 h (Figure 5c). Sustained degradation was also observed for the entirety of the 48 h tested. Based on the results of this time-course dosing experiment, it appears that 11 begins degrading hCAII quickly after exposure to the cell and maintains prolonged activity after initial dosing.
After reaching 90% confluency, HEK293 cells were trypsinized, counted, and plated with 2 mL media at 2 × 10^6 cells per well on a tissue-culture-treated, 6-well plate. […] Lysates were thawed on ice, and the total protein concentration was measured using a Pierce bicinchoninic acid protein assay (Thermo Fisher Scientific, 23225). […] The immunoblot was then analyzed using the ImageJ software as an 8-bit image. The brightness and contrast of the image were adjusted, and the integrated density was calculated for each protein band using the gel lane analysis tool. Relative hCAII expression was calculated by normalizing the hCAII/β-actin ratio in compound-treated wells to the hCAII/β-actin ratio in vehicle (DMSO)-treated wells and indicated as “hCAII Abundance (% DMSO)”.

hCAII [4] = biological target: T2, hCAII; assay: competition / mechanistic experiments on hCAII degradation in HEK293 cells, western blot; assay type: cell-based; settings: then 50 nM for 6 h
Protocol: Competition experiments were performed to verify that the degradation activity of 11 was the result of a PROTAC-style mechanism requiring concurrent degrader engagement with both hCAII and CRBN.
After reaching 90% confluency, HEK293 cells were trypsinized, counted, and plated with 2 mL media at 2 × 10^6 cells per well on a tissue-culture-treated, 6-well plate. At the appropriate number of hours before reaching ∼90% confluency, cells were treated with DMSO solutions of the appropriate compounds (final concentration 0.5% DMSO per well). Upon reaching 90% confluency, typically 72 h, culture media were removed and the cells were washed with cold Dulbecco’s phosphate-buffered saline (DPBS). Lysis buffer, composed of cell lysis buffer (Cell Signaling Technology, 9803), protease inhibitor cocktail (Cell Signaling Technology, 5872), and 1 mM phenylmethylsulfonylfluoride, was added to each well, and the plates were rocked at 4 °C for 20 min. Cells were then scraped from the bottom of the plates, and the supernatant was collected after spinning down at 14,000g at 4 °C for 10 min and frozen at −80 °C. Lysates were thawed on ice, and the total protein concentration was measured using a Pierce bicinchoninic acid protein assay (Thermo Fisher Scientific, 23225). […] Following heating at 98 °C for 5 min and cooling to room temperature, the prepared samples were electrophoretically separated on a 4–20% TGX gel (Bio-Rad, 4568095) and transferred to a PVDF membrane (Amersham Hybond P 0.45 μm, 106000019) in a tris-glycine transfer buffer (Thermo Fisher Scientific, LC3675) with a 20% final MeOH concentration. […] The immunoblot was then analyzed using the ImageJ software as an 8-bit image. The brightness and contrast of the image were adjusted, and the integrated density was calculated for each protein band using the gel lane analysis tool. Relative hCAII expression was calculated by normalizing the hCAII/β-actin ratio in compound-treated wells to the hCAII/β-actin ratio in vehicle (DMSO)-treated wells and indicated as “hCAII Abundance (% DMSO)”.

[5] = SMILES csv supplement, read-out: hCAII IC50
[6] = recombinant hCAII 40 nM, p-nitrophenyl acetate 500 μM, pH 8.0, 95% confidence interval, read-out: IC50 (nM), hCAII inhibition activity (Table S1)
[7] = enzyme concentration of 40 nM, read-out: IC50, below the detection limit of the assay

SMILES	IC50 (hCAII [1]; [5]) [nM]	IC50 (hCAII [1]; [6]) [nM]	further results
NS(=O)(=O)c1ccc(C(=O)NCCOCCNc2cccc3c2C(=O)N(C2CCC(=O)NC2=O)C3=O)cc1 (stereo not shown) [Compound 1, N-(2-(2-((2-(2,6-Dioxopiperidin-3-yl)-1,3-dioxoisoindolin-4-yl)amino)ethoxy)ethyl)-4-sulfamoylbenzamide]	48 ± 5	48 ± 5	
NS(=O)(=O)c1ccc(C(=O)NCCOCCOCCOCCNc2cccc3c2C(=O)N(C2CCC(=O)NC2=O)C3=O)cc1 (stereo not shown) [Compound 3, N-(2-(2-(2-(2-((2-(2,6-Dioxopiperidin-3-yl)-1,3-dioxoisoindolin-4-yl)amino)ethoxy)ethoxy)ethoxy)ethyl)-4-sulfamoylbenzamide]	41 ± 5	41 ± 5	
NS(=O)(=O)c1ccc(C(=O)NCCOCCNC(=O)CC23CC4CC(CC(C4)C2)C3)cc1 [Compound 6, N-(2-(2-(2-((3r,5r,7r)-Adamantan-1-yl)acetamido)ethoxy)ethyl)-4-sulfamoylbenzamide]		57 ± 5	
NS(=O)(=O)c1ccc(C(=O)NCCOCCOCCNC(=O)CC23CC4CC(CC(C4)C2)C3)cc1 [Compound 7, N-(2-(2-(2-(2-((3r,5r,7r)-Adamantan-1-yl)acetamido)ethoxy)ethoxy)ethyl)-4-sulfamoylbenzamide]		≤ 20	IC50 (hCAII [1]; [7]): ≤ 20 nM
NS(=O)(=O)c1ccc(C(=O)NCCCOCCCCOCCCNC(=O)CC23CC4CC(CC(C4)C2)C3)cc1 [Compound 9, N-(3-(4-(3-(2-((3r,5r,7r)-Adamantan-1-yl)acetamido)propoxy)butoxy)propyl)-4-sulfamoylbenzamide]	35 ± 5	35 ± 5	
NS(=O)(=O)c1ccc(C(=O)NCCCCCCCCCCCCNc2cccc3c2C(=O)N(C2CCC(=O)NC2=O)C3=O)cc1 (stereo not shown) [Compound 11, N-(12-((2-(2,6-Dioxopiperidin-3-yl)-1,3-dioxoisoindolin-4-yl)amino)dodecyl)-4-sulfamoylbenzamide]			Dmax (hCAII [2]; HEK293, HEK293 cells, 24 h, read-out: DMax (maximum percentage of degradation)): 100%; concentration achieving near-complete hCAII degradation (hCAII [2]; HEK293 cells, 24 h): 5 nM; degradation of hCAII at concentrations as low as (hCAII [2]; HEK293 cells, 24 h): 50 pM; DC50 (hCAII [2]; HEK293 cells, 24 h, 5 pM to 15 μM, 95% confidence interval, read-out: DC50 (half-maximal degradation)): 0.5 ± 0.3 nM; hook effect (attenuation of target degradation at high concentration) (hCAII [2]; HEK293 cells, 24 h, doses up to 15 μM): no appreciable “hook effect”; fold increase in activity over 4 (hCAII [2]; from DC50 values): 10 fold; time to maximal effect (hCAII [3]): ≤ 6 h; hCAII degradation after MG132 pre-treatment (hCAII [4]; HEK293, 1 μM MG-132 for 1 h): complete loss of hCAII degradation activity; hCAII degradation after acetazolamide pre-treatment (hCAII [4]; HEK293, 1 h preincubation with 5 μM acetazolamide): no degradation of hCAII; hCAII degradation after lenalidomide pre-treatment (hCAII [4]; HEK293, 1 h preincubation with 5 μM lenalidomide): no degradation of hCAII

The next lines start with results.

IC50 (hCAII [1]; [5]) [nM]	IC50 (hCAII [1]; [6]) [nM]	SMILES	further results
28 ± 4	28 ± 4	NS(=O)(=O)c1ccc(C(=O)NCCOCCOCCOCCNC(=O)CC23CC4CC(CC(C4)C2)C3)cc1 [Compound 8, N-(1-((3r,5r,7r)-Adamantan-1-yl)-2-oxo-6,9,12-trioxa-3-azatetradecan-14-yl)-4-sulfamoylbenzamide]	
	≤ 20	NS(=O)(=O)c1ccc(C(=O)NCCCOCCOCCOCCCNC(=O)CC23CC4CC(CC(C4)C2)C3)cc1 [Compound 10, N-(1-((3r,5r,7r)-Adamantan-1-yl)-2-oxo-7,10,13-trioxa-3-azahexadecan-16-yl)-4-sulfamoylbenzamide]	IC50 (hCAII [1]; [7]): ≤ 20 nM
58 ± 8	58 ± 8	COCCNC(=O)c1ccc(S(N)(=O)=O)cc1 [Compound 13, N-(2-Methoxyethyl)-4-sulfamoylbenzamide]	
